Substitutions are numbered along the chain they refer to. Where “and” joins values, the source holds several entries; their conditions need not be identical. Identical values can stand only once. Like-named read-outs stand apart in the source and are kept apart here.
What was measured:
OCT1 WT = molecular target: T1, OCT1 WT (Homo sapiens, UniProt O15245); experiment: Uptake screening (transport ratio over empty vector), HEK293 cells overexpressing OCT1 WT; type: cell-based; set-up: expressed in transfected cells;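 also: intracellular substrate levels quantified by HPLC–tandem mass spectrometry after uptake in HBSS+ buffer at 37 °C, stable Flp-In HEK293 lines, fold change versus empty vector–transfected cells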
T1 sequence (O15245 1-554): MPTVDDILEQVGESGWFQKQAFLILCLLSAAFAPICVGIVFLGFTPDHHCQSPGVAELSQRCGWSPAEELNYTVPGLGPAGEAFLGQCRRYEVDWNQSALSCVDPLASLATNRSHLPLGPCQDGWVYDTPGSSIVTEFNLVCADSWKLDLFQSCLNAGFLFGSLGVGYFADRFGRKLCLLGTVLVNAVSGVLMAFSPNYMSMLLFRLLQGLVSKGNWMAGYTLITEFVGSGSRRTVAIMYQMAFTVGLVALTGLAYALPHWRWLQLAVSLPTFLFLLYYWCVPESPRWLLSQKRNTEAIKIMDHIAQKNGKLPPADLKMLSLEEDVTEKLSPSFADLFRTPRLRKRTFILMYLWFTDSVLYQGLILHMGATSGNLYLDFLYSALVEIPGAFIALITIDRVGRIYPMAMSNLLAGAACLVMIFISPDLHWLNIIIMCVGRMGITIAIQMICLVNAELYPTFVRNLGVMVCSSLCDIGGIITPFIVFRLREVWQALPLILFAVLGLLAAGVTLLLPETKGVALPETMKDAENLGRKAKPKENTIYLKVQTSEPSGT
Protocol: (§1) All experiments were carried out using transporter-overexpressing HEK293 cells. […] Cells were cultivated in Dulbecco’s Modified Eagle’s medium supplemented with 10% fetal calf serum, 100 U/ml penicillin, and 100 μg/ml streptomycin. Cells were passaged twice a week and kept in culture for no longer than 30 passages.
(§2) For uptake studies, 300,000 HEK293 cells were plated in each well of 24-well plates precoated with poly-D-lysine 48 prior to the experiment. On the day of the experiment, cells were washed once with prewarmed to 37 °C HBSS+ (Hank’s balanced salt solution supplemented with 10 mM Hepes, both Sigma-Aldrich). […] Uptake was stopped by adding ice-cold HBSS+ and cells were washed twice with ice-cold buffer before cell lysis was done using 80% acetonitrile containing an appropriate internal standard for eventual mass spectrometry. Relative quantification was done by comparison of transporter-overexpressing cells to empty vector–transfected controls. For uptake kinetic experiments, cells were incubated with increasing concentrations of substrate dissolved in HBSS+. Absolute quantification was done later by comparison to a standard curve in lysis buffer with known concentration.
(§3) Intracellular drug concentrations were detected and quantified by HPLC coupled to mass spectrometry. […] Substance-specific conditions were used to adjust the retention times of the analytes.
(§4) Transport ratios were determined as relative fold-increase of the uptake in transporter-overexpressing cells over empty vector–transfected control cells. For transport kinetic experiments, absolute substrate quantification was done by signal comparison to a standard curve with known concentrations. Net uptake was then determined by subtracting the uptake into empty vector–transfected cells from transporter-overexpressing cells. […] Vmax defines the maximum transport velocity, Km refers to the substrate concentration required to reach half vmax. The intrinsic clearance Clint is the ratio of vmax over Km.

OCT1 Phe244Ala variant = molecular target: T2, OCT1 Phe244Ala variant (Homo sapiens, UniProt O15245, F244A); experiment: Uptake screening (transport ratio over empty vector), HEK293 cells overexpressing OCT1 Phe244Ala variant; type: cell-based; set-up: expressed in transfected cells;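 also: stably transfected HEK293 cells, intracellular substrate quantified by HPLC-tandem mass spectrometry in cell lysates, uptake in HBSS+ buffer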
T2 sequence (O15245 1-554 F244A): T1 sequence (O15245 1-554) with F244A
Protocol: as §1, §2, §3, §4

[1] = uptake ratio over empty vector, HEK293 cells overexpressing OCT1 WT
[2] = Phe244Ala uptake relative to WT
[3] = uptake ratio over empty vector, HEK293 cells overexpressing OCT1 Phe244Ala
[4] = uptake ratio of OCT1 WT-overexpressing HEK293 cells over empty vector
[5] = Phe244Ala uptake relative to OCT1 WT
[6] = uptake ratio of OCT1 Phe244Ala-overexpressing HEK293 cells over empty vector

Row | SMILES | Mean_transport_ratio_WT (OCT1 WT; [1]) | Mean_transport_ratio_Phe244Ala (OCT1 Phe244Ala variant; [3]) | relative_Phe244Ala_uptake_in% (OCT1 Phe244Ala variant; [5]) | other results
1 | CC(C)N(CCC(C(N)=O)(c1ccccc1)c1ccccn1)C(C)C (stereo not drawn) [Disopyramide] | 1.334 | 1.093 |  | relative_Phe244Ala_uptake_in% (OCT1 Phe244Ala variant; [2]): 27.882%
2 | N=C(N)NC(=O)Cc1c(Cl)cccc1Cl [Guanfacine] |  |  | 86.485% | Mean_transport_ratio_WT (OCT1 WT; [4]): 3.273; Mean_transport_ratio_Phe244Ala (OCT1 Phe244Ala variant; [6]): 2.966
3 | CNCC(O)c1ccc(O)cc1 (stereo not drawn) [Synephrine] | 8.37 | 4.516 | 47.706% | 
4 | CC[C@@H](CO)NCCN[C@@H](CC)CO [(S,S)-Ethambutol] |  |  |  | Mean_transport_ratio_WT (OCT1 WT): 21.59; Mean_transport_ratio_Phe244Ala (OCT1 Phe244Ala variant): 11.185; relative_Phe244Ala_uptake_in% (OCT1 Phe244Ala variant): 49.465%
5 | CC(C)NCC(O)c1ccc(NS(C)(=O)=O)cc1 (stereo not drawn) [Sotalol] | 5.197 | 2.831 | 43.617% | 
6 | CN(C)CC(c1ccc(O)cc1)C1(O)CCCCC1 (stereo not drawn) [O-Desmethylvenlafaxine] | 2.309 | 3.092 |  | relative_Phe244Ala_uptake_in% (OCT1 Phe244Ala variant; [2]): 159.771%
7 | N=C(N)N1CCc2ccccc2C1 [Debrisoquin] | 19.246 | 20.768 |  | relative_Phe244Ala_uptake_in% (OCT1 Phe244Ala variant; [2]): 108.342%
8 | C[C@H]1N=C(N(C)C)N=C(N)N1 [Imeglimin] |  |  | 25.831% | Mean_transport_ratio_WT (OCT1 WT; [4]): 32.655; Mean_transport_ratio_Phe244Ala (OCT1 Phe244Ala variant; [6]): 9.177
9 | c1cnn(C2CCNCC2)c1 [762240-09-5] | 4.49 | 1.119 |  | relative_Phe244Ala_uptake_in% (OCT1 Phe244Ala variant; [2]): 3.421%
10 | Nc1ccncc1N [Amifampridine] | 4.689 | 1.269 |  | relative_Phe244Ala_uptake_in% (OCT1 Phe244Ala variant; [2]): 7.302%
11 | CC(C)(C)NCC(O)c1ccc(O)c(CO)c1 (stereo not drawn) [Salbutamol] | 8.785 | 12.079 | 142.307% | 
12 | CCOC(=O)c1ccc(OC(=O)CCCCCNC(=N)N)cc1 [Gabexate] |  |  | 112.397% | Mean_transport_ratio_WT (OCT1 WT; [4]): 1.935; Mean_transport_ratio_Phe244Ala (OCT1 Phe244Ala variant; [6]): 2.051
13 | COc1cc2c(cc1OC)-c1cc3ccc(OC)c(OC)c3c[n+]1CC2 [Palmatin] | 7.047 | 4.951 | 65.326% | 
14 | CN1CCN(CC(=O)N2c3ccccc3C(=O)Nc3cccnc32)CC1 [Pirenzipin] | 1.911 | 8.32 | 803.892% | 
15 | C[n+]1ccc(-c2ccccc2)cc1 [MPP^+, 1-Methyl-4-phenylpyridinium] |  |  | 63.172% | Mean_transport_ratio_WT (OCT1 WT; [4]): 45.919; Mean_transport_ratio_Phe244Ala (OCT1 Phe244Ala variant; [6]): 29.377
16 | CC(C)NC[C@H](O)COc1ccc(O)cc1 [S-Prenalterol] | 3.969 | 4.341 | 112.541% | 
17 | CCC1(c2cccc(O)c2)CCCCN(C)C1 (stereo not drawn) [Meptazinol] |  |  |  | Mean_transport_ratio_WT (OCT1 WT): 1.477; Mean_transport_ratio_Phe244Ala (OCT1 Phe244Ala variant): 1.571; relative_Phe244Ala_uptake_in% (OCT1 Phe244Ala variant): 119.786%
18 | CC(C)NCC(O)c1ccc(O)c(O)c1 (stereo not drawn) [Isoproterenol] |  |  | 28.983% | Mean_transport_ratio_WT (OCT1 WT; [4]): 6.241; Mean_transport_ratio_Phe244Ala (OCT1 Phe244Ala variant; [6]): 2.519
19 | Cc1nccn1CC1CCc2c(c3ccccc3n2C)C1=O (stereo not drawn) [Ondansetron] | 1.554 | 1.514 | 92.867% | 
20 | C=CCN1CCCC1CNC(=O)c1cc(S(N)(=O)=O)cc(OC)c1OC (stereo not drawn) [Veralipride] | 1.907 | 5.345 | 478.904% | 
21 | CN(C)CCc1c[nH]c2ccc(CS(=O)(=O)N3CCCC3)cc12 [Almotriptan] | 3.882 | 4.279 |  | relative_Phe244Ala_uptake_in% (OCT1 Phe244Ala variant; [2]): 113.777%
22 | COc1cc2c(cc1OC)-c1cc3ccc4c(c3c[n+]1CC2)OCO4 [Epiberberine] | 22.185 | 18.92 |  | relative_Phe244Ala_uptake_in% (OCT1 Phe244Ala variant; [2]): 84.587%

Row | SMILES | Mean_transport_ratio_WT (OCT1 WT; [1]) | Mean_transport_ratio_Phe244Ala (OCT1 Phe244Ala variant; [3]) | relative_Phe244Ala_uptake_in% (OCT1 Phe244Ala variant; [5]) | other results
23 | Cc1cc(O)cc(C)c1OCC(C)N (stereo not drawn) [4-Hydroxy mexiletine] |  |  | 23.363% | Mean_transport_ratio_WT (OCT1 WT; [4]): 3.163; Mean_transport_ratio_Phe244Ala (OCT1 Phe244Ala variant; [6]): 1.505
24 | Nc1nc(=O)n([C@@H]2CS[C@H](CO)O2)cc1F [Emtricitabine] | 2.95 | 2.01 |  | relative_Phe244Ala_uptake_in% (OCT1 Phe244Ala variant; [2]): 51.794%
25 | CN(C)CCc1c[nH]c2ccc(Cn3cncn3)cc12 [Rizatriptan] | 7.577 | 2.714 | 26.058% | 
26 | CCCCNC(=N)NC(=N)N [Buformin] | 33.648 | 14.865 |  | relative_Phe244Ala_uptake_in% (OCT1 Phe244Ala variant; [2]): 42.469%
27 | COc1ccc(CC(C)(C)NC[C@H](O)c2cc(O)cc3c2OCC(=O)N3)cc1 [Olodaterol] | 6.02 | 7.992 | 139.279% | 
28 | CNC[C@H](O)c1cccc(O)c1 [Phenylephrine] | 9.854 | 3.61 | 29.477% | 
29 | NCC(O)c1ccc(O)cc1 (stereo not drawn) [Octopamine] |  |  | 54.574% | Mean_transport_ratio_WT (OCT1 WT; [4]): 3.942; Mean_transport_ratio_Phe244Ala (OCT1 Phe244Ala variant; [6]): 2.606
30 | Cc1cc(C(C)(C)C)cc(C)c1CC1=NCCN1 [Xylometazoline] | 2.256 | 4.046 | 242.447% | 
31 | C[N+]1(C)CCCC(OC(=O)C(O)(c2ccccc2)c2ccccc2)C1 (stereo not drawn) [Mepenzolate] |  |  | 130.959% and 121.132% | Mean_transport_ratio_WT (OCT1 WT; [4]): 28.031 and 34.795; Mean_transport_ratio_Phe244Ala (OCT1 Phe244Ala variant; [6]): 36.4 and 41.936
32 | NCCc1cccc(O)c1 [m-Tyramine] | 6.001 | 1.687 | 13.730% | 
33 | N=C(N)NC(=O)c1nc(Cl)c(N)nc1N [Amiloride] |  |  |  | Mean_transport_ratio_WT (OCT1 WT): 37.597; Mean_transport_ratio_Phe244Ala (OCT1 Phe244Ala variant): 23.504; relative_Phe244Ala_uptake_in% (OCT1 Phe244Ala variant): 61.492%
34 | CNS(=O)(=O)Cc1ccc2[nH]cc(CCN(C)C)c2c1 [Sumatriptan] | 32.304 | 37.118 | 115.380% | 
35 | CCN1CCCC1CNC(=O)c1cc(S(=O)(=O)CC)c(N)cc1OC (stereo not drawn) [Amisulpride] | 8.435 | 8.279 |  | relative_Phe244Ala_uptake_in% (OCT1 Phe244Ala variant; [2]): 97.893%
36 | CC[N+](C)(CC)CCOC(=O)C(O)(c1ccccc1)C1CCCCC1 (stereo not drawn) [Oxyphenonium] | 32.636 | 40.516 | 124.905% | 
37 | CN(C)CCc1c[nH]c2ccc(C[C@@H]3COC(=O)N3)cc12 [(R)-Zolmitriptan] |  |  |  | Mean_transport_ratio_WT (OCT1 WT): 34.392; Mean_transport_ratio_Phe244Ala (OCT1 Phe244Ala variant): 13.515; relative_Phe244Ala_uptake_in% (OCT1 Phe244Ala variant): 37.478%
38 | COc1ccc2[nH]cc(CCN)c2c1 [5-Methoxytryptamine] |  |  |  | Mean_transport_ratio_WT (OCT1 WT): 3.73; Mean_transport_ratio_Phe244Ala (OCT1 Phe244Ala variant): 1.602; relative_Phe244Ala_uptake_in% (OCT1 Phe244Ala variant): 22.030%
39 | CC(N)CCCC(C)(C)O (stereo not drawn) [Heptaminol] |  |  | 20.840% | Mean_transport_ratio_WT (OCT1 WT; [4]): 8.957; Mean_transport_ratio_Phe244Ala (OCT1 Phe244Ala variant; [6]): 2.658
40 | CN(C)c1ccc(/C=C/c2cc[n+](C)cc2)cc1 [ASP^+, 4-(4-(dimethylamino)styryl)-N-methylpyridinium] | 12.491 | 8.237 |  | relative_Phe244Ala_uptake_in% (OCT1 Phe244Ala variant; [2]): 62.977%
41 | COc1ccc2c3c([nH]c2c1)C(C)=NCC3 [Harmaline] |  |  | 53.184% | Mean_transport_ratio_WT (OCT1 WT; [4]): 1.46; Mean_transport_ratio_Phe244Ala (OCT1 Phe244Ala variant; [6]): 1.245
42 | CC(C)(C)NCC(O)c1ccc(O)c(O)c1 (stereo not drawn) [Colterol] | 5.025 | 2.364 |  | relative_Phe244Ala_uptake_in% (OCT1 Phe244Ala variant; [2]): 33.880%
43 | NCC(O)c1cccc(O)c1 (stereo not drawn) [Norphenylephrine] |  |  | 40.709% | Mean_transport_ratio_WT (OCT1 WT; [4]): 2.898; Mean_transport_ratio_Phe244Ala (OCT1 Phe244Ala variant; [6]): 1.772

Reference: PMC11602988 (The Journal of Biological Chemistry, 2024)
